21 compounds from patent publication US20100137313A1 (ASTRAZENECA AB, priority 2008, published 2010) can be followed below.

S. pneumoniae Topoisomerase IV ATPase (ParE), sequence (Q59961 whole entry): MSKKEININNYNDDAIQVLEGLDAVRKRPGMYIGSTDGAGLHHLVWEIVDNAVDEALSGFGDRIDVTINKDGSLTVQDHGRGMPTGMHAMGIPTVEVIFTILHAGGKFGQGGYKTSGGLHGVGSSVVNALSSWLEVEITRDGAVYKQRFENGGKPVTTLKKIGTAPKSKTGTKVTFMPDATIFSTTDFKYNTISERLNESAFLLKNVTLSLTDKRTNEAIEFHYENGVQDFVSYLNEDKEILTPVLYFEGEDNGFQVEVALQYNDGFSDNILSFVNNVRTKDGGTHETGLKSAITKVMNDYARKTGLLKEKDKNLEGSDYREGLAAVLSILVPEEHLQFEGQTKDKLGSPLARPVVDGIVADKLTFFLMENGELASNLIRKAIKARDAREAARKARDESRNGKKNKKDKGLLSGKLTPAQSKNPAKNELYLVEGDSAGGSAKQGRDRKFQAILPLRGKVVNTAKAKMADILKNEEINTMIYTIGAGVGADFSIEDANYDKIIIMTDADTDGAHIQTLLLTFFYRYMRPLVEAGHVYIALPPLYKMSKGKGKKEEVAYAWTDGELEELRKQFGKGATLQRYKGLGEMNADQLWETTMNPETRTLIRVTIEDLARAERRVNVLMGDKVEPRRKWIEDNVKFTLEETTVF

The assay addresses S. pneumoniae Topoisomerase IV ATPase (ParE) (Streptococcus pneumoniae serotype 4, UniProt Q59961). Description: S. pneumoniae Topoisomerase IV ATPase inhibition. It is filed as biochemical. The following applies: values marked * are an average of two or more data points, read-out: % Inh (13 μM) of S. pneumoniae Topoisomerase IV ATPase. The procedure, abridged:
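ParE ATPase (1.25 nM) run with 160 μM ATP and 5 μg/ml sheared salmon sperm DNA in Tris pH 8.0, Mg2+, glycerol, DTT, Brij-35. Phosphate released read by malachite green/molybdate absorbance at 650 nm. IC50 from 10 compound concentrations; DMSO (2%) as 0% and EDTA (20 μM) as 100% inhibition.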
Regarding `Cc1ncsc1CCNc1nc(Nc2ccc(F)c(Cl)c2)ncc1-c1cncc(C(=O)O)c1` [Example 262, 5-(2-[(3-chloro-4-fluorophenyl)amino]-4-{[2-(4-methyl-1,3-thiazol-5-yl)ethyl]amino}pyrimidin-5-yl)pyridine-3-carboxylic acid], the inhibition at 13 µM came to 80.5%. As for `CN(C)CCCNc1nc(Nc2ccc(F)c(Cl)c2)ncc1-c1ccc(C(=O)NCc2ccccc2)cc1` [Example 365, N-benzyl-4-(2-(3-chloro-4-fluorophenylamino)-4-(3-(dimethylamino)propylamino)pyrimidin-5-yl) benzamide], the inhibition at 13 µM is 110%. For the compound `CN(C(=O)c1cccc(-c2cnc(Nc3ccc(F)c(Cl)c3)nc2-n2ccc(C(F)(F)F)n2)c1)S(C)(=O)=O` [Example 878, 3-(2-(3-chloro-4-fluorophenylamino)-4-(3-(trifluoromethyl)-1H-pyrazol-1-yl)pyrimidin-5-yl)-N-methyl-N-(methylsulfonyl)benzamide], the inhibition at 13 µM was 88%. The figure for `CCOC(=O)c1cncc(-c2cnc(Nc3ccc(F)c(Cl)c3)nc2NCCNC(C)=O)c1` [Example 94, 5-[4-(2-Acetylamino-ethylamino)-2-(3-chloro-4-fluoro-phenylamino)-pyrimidin-5-yl]-nicotinic acid ethyl ester] is 77.5%; for `COc1cc(Nc2ncc(-c3cnc(OC)c(C(=O)NS(=O)(=O)c4cn(C)c(=O)n(C)c4=O)c3)c(-n3nc(C(F)(F)F)cc3C)n2)cc(OC)c1` [Example 847, 5-{2-[(3,5-dimethoxyphenyl)amino]-4-[5-methyl-3-(trifluoromethyl)-1H-pyrazol-1-yl]pyrimidin-5-yl}-N-[(1,3-dimethyl-2,4-dioxo-1,2,3,4-tetrahydropyrimidin-5-yl)sulfonyl]-2-methoxypyridine-3-carboxamide] it is 97%; for `CN(C)CCCNc1nc(Nc2ccc(F)c(Cl)c2)ncc1-c1cncc(-c2noc(=O)[nH]2)c1` [Example 81, Sodium 3-(5-(2-(3-chloro-4-fluorophenylamino)-4-(3-(dimethylamino)propylamino)pyrimidin-5-yl)pyridin-3-yl)-5-oxo-1,2,4-oxadiazol-4-ide] it is 72.6%. The figure for `CS(=O)(=O)NC(=O)c1cccc(-c2cnc(Nc3ccc(F)c(Cl)c3)nc2-n2ccc(C(F)(F)F)n2)c1` [Example 1002, 3-(2-(3-Chloro-4-fluorophenylamino)-4-(3-(trifluoromethyl)-1H-pyrazol-1-yl)pyrimidin-5-yl)-N-(methylsulfonyl)benzamide] is 100%; for `COC(=O)c1cc2cc(-c3cnc(Nc4ccc(F)c(Cl)c4)nc3NCCCN(C)C)ccc2s1` [Example 22, Methyl 5-{2-(3-chloro-4-fluorophenylamino)-4-[3-(dimethylamino)propylamino]pyrimidin-5-yl}benzo[b]thiophene-2-carboxylate] it is 85.3%; for `COc1cc(Nc2ncc(-c3cnc(OC)c(-c4nnn[nH]4)c3)c(-n3nc(C(F)(F)F)cc3C)n2)cc(OC)c1` [Example 873, N-(3,5-dimethoxyphenyl)-5-(6-methoxy-5-(1H-tetrazol-5-yl)pyridin-3-yl)-4-(5-methyl-3-(trifluoromethyl)-1H-pyrazol-1-yl)pyrimidin-2-amine] it is 100%. The figure for `COc1ncc(-c2cnc(Nc3cc(C)cc(Cl)c3)nc2-n2nc(C(F)(F)F)cc2C)cc1C(=O)NS(C)(=O)=O` [Example 803, 5-{2-[(3-chloro-5-methylphenyl)amino]-4-[5-methyl-3-(trifluoromethyl)-1H-pyrazol-1-yl]pyrimidin-5-yl}-2-methoxy-N-(methylsulfonyl)pyridine-3-carboxamide] is 100%. For the compound `CCS(=O)(=O)NC(=O)c1cc(-c2cnc(Nc3cc(OC)cc(OC)c3)nc2-n2nc(C(F)(F)F)cc2C)cn(CCOC)c1=O` [Example 1162, 5-(2-(3,5-dimethoxyphenylamino)-4-(5-methyl-3-(trifluoromethyl)-1H-pyrazol-1-yl)pyrimidin-5-yl)-N-(ethylsulfonyl)-1-(2-methoxyethyl)-2-oxo-1,2-dihydropyridiine-3-carboxamide], the inhibition at 13 µM was found to be 100%. Consider `COCCOc1cccc(Nc2ncc(-c3cccc(/C=C/C(=O)O)c3)c(N3CCOCC3)n2)c1` [Example 457], for which the inhibition at 13 µM was 28%. Take `CNC(=O)c1cc(-c2cnc(Nc3cc(OC)cc(OC)c3)nc2-n2nc(C(F)(F)F)cc2C)cnc1OC` [Example 808, 5-{2-[(3,5-dimethoxyphenyl)amino]-4-[5-methyl-3-(trifluoromethyl)-1H-pyrazol-1-yl]pyrimidin-5-yl}-2-methoxy-N-methylpyridine-3-carboxamide]: the inhibition at 13 µM was determined as 100%. In the case of `CNC(=O)c1cncc(-c2cnc(Nc3cc(OC)cc(OC)c3)nc2-n2ccc(C(F)(F)F)n2)c1` [Example 678, 5-{2-[(3,5-dimethoxyphenyl)amino]-4-[3-(trifluoromethyl)-1H-pyrazol-1-yl]pyrimidin-5-yl}-N-methylpyridine-3-carboxamide], the inhibition at 13 µM was 100%. `Fc1ccc(Nc2ncc(-c3cncnc3)c(-n3ccc(C(F)(F)F)n3)n2)cc1Cl` [Example 71, N-(3-chloro-4-fluorophenyl)-4-[3-(trifluoromethyl)-1H-pyrazol-1-yl]-5,5′-bipyrimidin-2-amine]: the inhibition at 13 µM came out at 66.7%.

Turning to `COc1nc(OC)c(-c2cnc(Nc3ccc(F)c(Cl)c3)nc2-n2nc(C(F)(F)F)cc2C)cc1C(=O)O` [Example 1131, 5-(2-(3-chloro-4-fluorophenylamino)-4-(5-methyl-3-(trifluoromethyl)-1H-pyrazol-1-yl)pyrimidin-5-yl)-2,6-dimethoxynicotinic acid], the inhibition at 13 µM was 100%. Take `COCCOc1ncc(-c2cnc(Nc3ccc(F)c(Cl)c3)nc2-n2nc(C(F)(F)F)cc2C)cc1C(=O)O` [Example 1130, 5-(2-(3-chloro-4-fluorophenylamino)-4-(5-methyl-3-(trifluoromethyl)-1H-pyrazol-1-yl)pyrimidin-5-yl)-2-(2-methoxyethoxy)nicotinic acid]: the inhibition at 13 µM came out at 99%. Turning to `CN(CC(=O)O)c1cccc(-c2cnc(Nc3ccc(F)c(Cl)c3)nc2-n2ccc(C(F)(F)F)n2)c1` [Example 598, N-(3-{2-[(3-chloro-4-fluorophenyl)amino]-4-[3-(trifluoromethyl)-1H-pyrazol-1-yl]pyrimidin-5-yl}phenyl)-N-methylglycine], the inhibition at 13 µM is 82%. In the case of `COc1nc(OC)c(-c2cnc(Nc3ccc(F)c(Cl)c3)nc2-n2ccc(C(F)(F)F)n2)cc1C(=O)O` [Example 1132, 5-(2-(3-chloro-4-fluorophenylamino)-4-(3-(trifluoromethyl)-1H-pyrazol-1-yl)pyrimidin-5-yl)-2,6-dimethoxynicotinic acid], the inhibition at 13 µM came to 100%. As for `Cc1cc(Nc2ncc(-c3cncc(C(=O)O)c3)c(N3CCOCC3)n2)ccc1F` [Example 438], the inhibition at 13 µM turned out to be 81%. In the case of `CCOC(=O)/C=C/c1cccc(-c2cnc(Nc3ccc(F)c(Cl)c3)nc2NCCCOC)c1` [Example 167, (E)-ethyl 3-(3-(2-(3-chloro-4-fluorophenylamino)-4-(3-methoxypropylamino)pyrimidin-5-yl)phenyl)acrylate] it was 31.1%.
